For test [1], the system named is Human immunodeficiency virus 1. Briefly: Concentration required to block the Nuclear translocation of HIV-1 pre-integration complex with Reverse Transcriptase protein. In kind it is functional, organism-based.
Test [2] deals with Human immunodeficiency virus 1. Briefly: Concentration required to block the Nuclear translocation of HIV-1 pre-integration complex with Reverse Transcriptase protein; NA: Not Active. Format: functional, organism-based.

`CC(=O)c1cc(Nc2cc(C)[n+](C)c(N)n2)cc(C(C)=O)c1` showed a half-inhibitory concentration (IC50) in test [1] of 100 nM. In the case of `COC(=O)c1cc(Nc2cc(C)[n+](C)c(N)n2)cc(C(=O)OC)c1`, the half-maximal inhibitory concentration (IC50) result in test [2] was “Not Active”. Still for that read-out and setting: the result for `Cc1cc(Nc2cc(C(C)O)cc(C(C)O)c2)nc(N)[n+]1C` (centres undefined) reads “Not Active”. `Cc1cc(Nc2cc(C(=O)O)cc(C(=O)O)c2)nc(N)[n+]1C`: the IC50 in test [1] came out at 100 nM.

For orientation: IC50 means the point on the concentration scale where inhibition reaches its midpoint. Low readings indicate greater potency, high ones weaker potency.

The record behind these values is ChEMBL document CHEMBL1134938, “Inhibition of HIV-1 nuclear import via schiff base formation with arylene bis(methylketone) compounds” (Bioorg Med Chem Lett, 2002).
